In PubChem BioAssay AID328 (DTP/NCI, 2004):
Several values for one entry are separate records, joined by “and”; a condition that tells them apart may be missing. Equal entries are not always repeated. Toxic doses and inconclusive results are not listed.

System: BDF1 mice, P388 leukemia ip, median survival T/C
Experiment: NCI In Vivo Anticancer Drug Screen. Data for tumor model P388 Leukemia (intraperitoneal) in B6D2F1 (BDF1) mice
Conditions: endpoint: median survival time, higher = longer survival
Summary of the method: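 Each value expresses how treatment altered survival: treated-mouse outcome over vehicle-mouse outcome, both groups bearing the transplanted tumour.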

[1] = dose: 100.0 mg/kg/injection, schedule: Q01DX009 (ip), vehicle: saline
[2] = dose: 100.0 mg/kg/injection, schedule: Q04DX003 (ip), vehicle: saline
[3] = dose: 200.0 mg/kg/injection, schedule: Q01DX009 (ip), vehicle: saline
[4] = dose: 200.0 mg/kg/injection, schedule: Q04DX003 (ip), vehicle: saline
[5] = dose: 400.0 mg/kg/injection, schedule: Q04DX003 (ip), vehicle: saline
[6] = dose: 100.0 mg/kg/injection, schedule: Q01DX009 (ip), vehicle: Klucel (hydroxypropylcellulose) (HPC)
[7] = dose: 200.0 mg/kg/injection, schedule: Q01DX009 (ip), vehicle: Klucel (hydroxypropylcellulose) (HPC)
[8] = dose: 400.0 mg/kg/injection, schedule: Q01DX009 (ip), vehicle: Klucel (hydroxypropylcellulose) (HPC)
[9] = dose: 6.25 mg/kg/injection, schedule: Q01DX009 (ip), vehicle: saline
[10] = dose: 12.5 mg/kg/injection, schedule: Q01DX009 (ip), vehicle: saline
[11] = dose: 25.0 mg/kg/injection, schedule: Q01DX009 (ip), vehicle: saline
[12] = dose: 50.0 mg/kg/injection, schedule: Q01DX009 (ip), vehicle: saline
[13] = dose: 75.0 mg/kg/injection, schedule: Q01DX009 (ip), vehicle: saline with Tween-80
[14] = dose: 150.0 mg/kg/injection, schedule: Q01DX009 (ip), vehicle: saline with Tween-80
[15] = dose: 200.0 mg/kg/injection, schedule: Q04DX003 (ip), vehicle: saline with Tween-80
[16] = dose: 100.0 mg/kg/injection, schedule: Q04DX003 (ip), vehicle: Klucel (hydroxypropylcellulose) (HPC)
[17] = dose: 400.0 mg/kg/injection, schedule: Q04DX003 (ip), vehicle: Klucel (hydroxypropylcellulose) (HPC)
[18] = dose: 100.0 mg/kg/injection, schedule: Q01DX009 (ip), vehicle: saline with Tween-80
[19] = dose: 200.0 mg/kg/injection, schedule: Q01DX009 (ip), vehicle: saline with Tween-80

In the case of CCOc1ccc(Br)cc1/C=C/C(C)=O, the T/C [1] is reported as 109 % of control, the T/C [2] is reported as 112 % of control and the T/C [3] is reported as 95 % of control. For the same compound, the T/C [4] was 95 % of control, the T/C (dose: 400.0 mg/kg/injection, schedule: Q01DX009 (ip), vehicle: saline) was 104 % of control and the T/C [5] was 100 % of control.
Cc1ccc(S(=O)(=O)c2ccc(Sc3cccc[n+]3[O-])c3no[n+]([O-])c23)cc1 was tested, and the T/C (dose: 15.0 mg/kg/injection, schedule: Q01DX009 (ip), vehicle: saline with Tween-80) was 97 % of control, the T/C (dose: 30.0 mg/kg/injection, schedule: Q01DX009 (ip), vehicle: saline with Tween-80) was 114 % of control and the T/C (dose: 60.0 mg/kg/injection, schedule: Q01DX009 (ip), vehicle: saline with Tween-80) was 90 % of control.
For CCOC(CNC(=O)OCc1ccccc1)OCC, the T/C [6] was 105 % of control, the T/C [7] was 100 % of control and the T/C [8] was 105 % of control.
In the case of O=S(=O)([O-])[O-].OCCNCCNCC[OH2+].OCCNCCNCC[OH2+].[Cu+2], the T/C [9] is reported as 94 % of control, the T/C [10] is reported as 100 % of control and the T/C [11] is reported as 94 % of control.
O=c1[nH]cnc2ccnn12 was tested, and the T/C [11] was 103 % of control, the T/C [12] was 100 % of control and the T/C (dose: 75.0 mg/kg/injection, schedule: Q01DX009 (ip), vehicle: saline) was 101 % of control. The T/C [1] was 100 % of control and the T/C [3] was 90 % of control.
For CC1(C)SC(=S)N(c2ccc([N+](=O)[O-])cc2)C1=O, the T/C [13] was 115 % of control, the T/C [14] was 113 % of control and the T/C (dose: 300.0 mg/kg/injection, schedule: Q01DX009 (ip), vehicle: saline with Tween-80) was 96 % of control.
CCO/C=C/C=C1C(=O)N(C)C(=O)N(C)C1=O was tested, and the T/C (dose: 50.0 mg/kg/injection, schedule: Q01DX009 (ip), vehicle: other) was 122 % of control.
In the case of C(/C=C/C=C/Nc1ccc(N=Nc2ccccc2)cc1)=Nc1ccc(N=Nc2ccccc2)cc1, the T/C [2] is reported as 90 % of control, the T/C [4] is reported as 104 % of control and the T/C [5] is reported as 95 % of control.
For C=CCc1ccccc1C=O, the T/C (dose: 100.0 mg/kg/injection, schedule: Q04DX003 (ip), vehicle: saline with Tween-80) was 97 % of control, the T/C [15] was 95 % of control and the T/C (dose: 400.0 mg/kg/injection, schedule: Q04DX003 (ip), vehicle: saline with Tween-80) was 97 % of control.
For CCC[CH2][Sn]1([CH2]CCC)[N](S(=O)(=O)c2ccc(C)cc2)c2ccccc2[N]1S(=O)(=O)c1ccc(C)cc1, the T/C (dose: 1.5 mg/kg/injection, schedule: Q01DX009 (ip), vehicle: Klucel (hydroxypropylcellulose) (HPC)) was 91 % of control, the T/C (dose: 6.0 mg/kg/injection, schedule: Q01DX009 (ip), vehicle: Klucel (hydroxypropylcellulose) (HPC)) was 150 % of control and the T/C (dose: 12.0 mg/kg/injection, schedule: Q01DX009 (ip), vehicle: Klucel (hydroxypropylcellulose) (HPC)) was 176 % of control.
With COc1cc2c(c(OC)c1OC)-c1ccc(SCc3ccccc3)c(=O)cc1[C@@H](NC(C)=O)CC2 the T/C (dose: 8.2 mg/kg/injection, schedule: Q01DX009 (ip), vehicle: Klucel (hydroxypropylcellulose) (HPC)) was 117 % of control and the T/C (dose: 12.5 mg/kg/injection, schedule: Q01DX009 (ip), vehicle: Klucel (hydroxypropylcellulose) (HPC)) was 170 % of control.
In the case of O=C1CSC(c2ccccc2)N1 (centres undefined), the T/C [6] is reported as 103 % of control, the T/C [16] is reported as 100 % of control and the T/C [7] is reported as 103 % of control. For the same compound, the T/C [8] was 96 % of control and the T/C [17] was 96 % of control.
COC(=O)C(c1ccccc1)C(Br)C(=O)c1ccccc1 (centres undefined) was tested, and the T/C [16] was 100 % of control, the T/C [7] was 88 % of control and the T/C (dose: 200.0 mg/kg/injection, schedule: Q04DX003 (ip), vehicle: Klucel (hydroxypropylcellulose) (HPC)) was 104 % of control. The T/C [17] was 90 % of control.
For OCC1CSC(c2ccccc2)N1 (centres undefined), the T/C (dose: 50.0 mg/kg/injection, schedule: Q01DX009 (ip), vehicle: saline with Tween-80) was 86 % of control, the T/C [18] was 115 % of control and the T/C [19] was 103 % of control.
CCC1CCCCN1C(=S)N/N=C(\C)c1ccccn1 (centres undefined) was tested, and the T/C (dose: 3.12 mg/kg/injection, schedule: Q04DX003 (ip), vehicle: saline with Tween-80) was 102 % of control and the T/C (dose: 12.5 mg/kg/injection, schedule: Q04DX003 (ip), vehicle: saline with Tween-80) was 114 % of control.
CC(=O)OCC1OC(n2cnc3c(=S)nc[nH]c32)C(OC(C)=O)C1OC(C)=O (centres undefined) was tested, and the T/C [18] was 118 % of control, the T/C [19] was 109 % of control and the T/C (dose: 400.0 mg/kg/injection, schedule: Q01DX009 (ip), vehicle: saline with Tween-80) was 90 % of control.
With CO[C@@]12[C@H](COC(N)=O)C3=C(C(=O)C(C)=C(N)C3=O)N1C[C@H]1[C@@H]2N1C(=O)[C@@H]1N2C(=O)[C@@H](NC(=O)Cc3ccccc3)[C@H]2SC1(C)C the T/C [10] was 151 % of control, the T/C [11] was 160 % of control and the T/C [12] was 210 % of control.
With COc1ccc(OC)c(NC(=O)Sc2c(Cl)c(Cl)nc(Cl)c2Cl)c1 the T/C (dose: 25.0 mg/kg/injection, schedule: Q01DX009 (ip), vehicle: Klucel (hydroxypropylcellulose) (HPC)) was 123 % of control, the T/C [6] was 124 % of control and the T/C [7] was 123 % of control.
For NC(=O)/C=C/c1c[nH]c2nccnc12, the T/C (dose: 3.12 mg/kg/injection, schedule: Q01DX009 (ip), vehicle: water) was 113 % of control, the T/C (dose: 3.12 mg/kg/injection, schedule: Q04DX003 (ip), vehicle: water) was 106 % of control and the T/C (dose: 6.25 mg/kg/injection, schedule: Q01DX009 (ip), vehicle: water) was 108 % of control. The T/C (dose: 6.25 mg/kg/injection, schedule: Q04DX003 (ip), vehicle: water) was 105 % of control and 112 % of control, the T/C (dose: 12.5 mg/kg/injection, schedule: Q01DX009 (ip), vehicle: water) was 121 % of control and the T/C (dose: 12.5 mg/kg/injection, schedule: Q04DX003 (ip), vehicle: water) was 104 % of control and 106 % of control. For the same compound, the T/C (dose: 25.0 mg/kg/injection, schedule: Q04DX003 (ip), vehicle: water) was 114 % of control.
COc1ccc2c(c1O)-c1c(OC)c(OC)cc3c1C(C2)N(C)CC3 (centres undefined) was tested, and the T/C (dose: 5.0 mg/kg/injection, schedule: Q01DX010 (ip), vehicle: saline) was 100 % of control, the T/C (dose: 10.0 mg/kg/injection, schedule: Q01DX010 (ip), vehicle: saline) was 95 % of control and the T/C (dose: 20.0 mg/kg/injection, schedule: Q01DX010 (ip), vehicle: saline) was 100 % of control. For the same compound, the T/C (dose: 40.0 mg/kg/injection, schedule: Q01DX010 (ip), vehicle: saline) was 100 % of control.
With COc1ccc(/C=C/[N+](=O)[O-])cc1O the T/C [9] was 106 % of control, the T/C [10] was 115 % of control and 121 % of control and the T/C (dose: 12.5 mg/kg/injection, schedule: Q04DX003 (ip), vehicle: saline) was 113 % of control. For the same compound, the T/C [11] was 111 % of control and 121 % of control, the T/C (dose: 25.0 mg/kg/injection, schedule: Q04DX003 (ip), vehicle: saline) was 113 % of control and the T/C [12] was 95 % of control and 123 % of control. For the same compound, the T/C (dose: 50.0 mg/kg/injection, schedule: Q04DX003 (ip), vehicle: saline) was 114 % of control and 122 % of control and the T/C [2] was 114 % of control and 122 % of control.
In the case of CCNc1nncs1, the T/C (dose: 30.0 mg/kg/injection, schedule: Q01DX009 (ip), vehicle: saline) is reported as 116 % of control, the T/C (dose: 38.0 mg/kg/injection, schedule: Q04DX003 (ip), vehicle: saline with Tween-80) is reported as 100 % of control and the T/C (dose: 44.0 mg/kg/injection, schedule: Q01DX009 (ip), vehicle: saline) is reported as 114 % of control. The T/C (dose: 58.0 mg/kg/injection, schedule: Q04DX003 (ip), vehicle: saline with Tween-80) was 100 % of control, the T/C (dose: 88.0 mg/kg/injection, schedule: Q04DX003 (ip), vehicle: saline with Tween-80) was 108 % of control and the T/C [1] was 150 % of control and 168 % of control. The T/C [2] was 86 % of control, the T/C (dose: 150.0 mg/kg/injection, schedule: Q01DX009 (ip), vehicle: saline) was 105 % of control and the T/C [15] was 165 % of control. The T/C (dose: 225.0 mg/kg/injection, schedule: Q01DX009 (ip), vehicle: saline) was 95 % of control and the T/C (dose: 300.0 mg/kg/injection, schedule: Q04DX003 (ip), vehicle: saline with Tween-80) was 196 % of control.
SCc1ccccn1 was tested, and the T/C (dose: 62.5 mg/kg/injection, schedule: Q01DX010 (ip), vehicle: carboxymethylcellulose (CMC)) was 110 % of control, the T/C (dose: 125.0 mg/kg/injection, schedule: Q01DX010 (ip), vehicle: carboxymethylcellulose (CMC)) was 110 % of control and the T/C (dose: 250.0 mg/kg/injection, schedule: Q01DX010 (ip), vehicle: carboxymethylcellulose (CMC)) was 120 % of control.
O=C1NC(=O)C(=Cc2cc3c(cc2Br)OCO3)C(=O)N1 was tested, and the T/C [13] was 123 % of control, the T/C [18] was 124 % of control and the T/C [14] was 120 % of control.
